Among the data in ChEMBL document CHEMBL2169843 (J Med Chem, 2012) are Ki values, retold here.

For orientation: Ki means a dissociation constant, usually derived from enzyme kinetics or from competition with a known ligand. A lower Ki goes with tighter binding.

The target of the experiment is Sigma non-opioid intracellular receptor 1 (Cavia porcellus, UniProt Q60492). Kind of experiment: Displacement of [3H]-(+)-pentazocine from sigma-1 receptor in guinea pig brain homogenates. Format: tissue-based. For orientation: Loss of bound radioactivity is the signal in a displacement assay; it reports binding, not function.
Sequence of Sigma non-opioid intracellular receptor 1 (Q60492 whole entry): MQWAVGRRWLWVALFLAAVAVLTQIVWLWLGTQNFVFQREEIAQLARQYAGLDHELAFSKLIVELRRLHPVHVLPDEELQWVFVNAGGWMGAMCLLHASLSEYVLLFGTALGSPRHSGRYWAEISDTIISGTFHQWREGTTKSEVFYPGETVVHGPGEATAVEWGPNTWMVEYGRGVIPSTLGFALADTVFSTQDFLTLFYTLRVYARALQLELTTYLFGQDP
In the case of `C[C@@]1(c2ccccc2)OCC[C@@H](CCNCc2ccccc2)O1`, the Ki is 17 nM. This counts as double-digit nanomolar.
Take `CCC[C@@]1(c2ccccc2)OCC[C@@H](CCNCc2ccccc2)O1`: the affinity corresponds to a Ki of 72 nM.
`NCCC1CCOC(c2ccccc2)O1` (racemic) displayed an inhibition constant (Ki) greater than 10000 nM.
`CCC[C@]1(c2ccccc2)OCC[C@H](CCNCc2ccccc2)O1` yielded an inhibitory constant (Ki) of 136 nM. This counts as sub-micromolar.
Turning to `CC(C)(C)[C@]1(c2ccccc2)OCC[C@H](CCNCc2ccccc2)O1`, the Ki is 253 nM.
For `CCC1(c2ccccc2)OCCC(CCN)O1` (racemic), the Ki was greater than 10000 nM.
`CCC[C@@]1(c2ccccc2)OCC[C@@H](CCN)O1`: the Ki is greater than 10000 nM.
As for `CC(C)(C)[C@@]1(c2ccccc2)OCC[C@@H](CCNCc2ccccc2)O1`, the inhibitory constant (Ki) amounted to 128 nM.
For `C[C@@]1(c2ccccc2)OCC[C@@H](CCN)O1` the value was greater than 10000 nM.
The value for `c1ccc(CNCC[C@H]2CCO[C@@H](c3ccccc3)O2)cc1` was 50 nM; that for `C[C@]1(c2ccccc2)OCC[C@H](CCNCc2ccccc2)O1` was 11 nM.
For `NCC[C@@H]1CCO[C@H](c2ccccc2)O1`, the Ki is greater than 10000 nM.
For the compound `CC[C@@]1(c2ccccc2)OCC[C@@H](CCN)O1`, the Ki is greater than 10000 nM.
Turning to `CCC[C@]1(c2ccccc2)OCC[C@H](CCN)O1`, the Ki was greater than 10000 nM.
`CC[C@@]1(c2ccccc2)OCC[C@@H](CCNCc2ccccc2)O1` returned a Ki of 20 nM.
`CC(C)(C)[C@@]1(c2ccccc2)OCC[C@@H](CCN)O1` displayed a Ki greater than 10000 nM.
Consider `C[C@]1(c2ccccc2)OCC[C@H](CCN)O1`, for which the Ki was greater than 10000 nM.
Consider `CC(C)(C)[C@]1(c2ccccc2)OCC[C@H](CCN)O1`, for which the Ki was greater than 10000 nM.
`NCC[C@H]1CCO[C@@H](c2ccccc2)O1`: the Ki was greater than 10000 nM.
The compound `CC[C@]1(c2ccccc2)OCC[C@H](CCNCc2ccccc2)O1` gave an inhibition constant Ki of 28 nM.
Compound `c1ccc(CNCC[C@@H]2CCO[C@H](c3ccccc3)O2)cc1` gave a Ki of 6 nM. This Ki is about 4.7-fold lower than that of the compound before.
For the compound `CC[C@]1(c2ccccc2)OCC[C@H](CCN)O1`, the Ki was greater than 10000 nM.
